Source: patent US20230312550A1, “N-(2-(4-CYANOTHIAZOLIDIN-3-YL)-2-OXOETHYL)-QUINOLINE-4-CARBOXAMIDES” (AstraZeneca AB, priority 2020, published 2023)
pIC50, pKd: −log10 of the molar value. ≈ marks a conversion by molar mass, not a printed value. Read-outs that look alike come from different tables or passages of the source. One block for each compound: values may come before it.

How the values were obtained:
[1] = molecular target: human dipeptidylpeptidase 7 (hDPP7) (Homo sapiens (Human), UniProt Q9UHL4); test: hDPP7 inhibition assay; type: biochemical; conditions: hDPP7 15 nM, Ala-Pro-amino-methylcoumarin 5 μM, n = 1
Method: Compounds were tested in a biochemical inhibition assay using human dipeptidylpeptidase 7 (hDPP7) enzyme at 15 nM FAC (BPS Bioscience, #80070) and the substrate Ala-Pro-amino-methylcoumarin (BPS Bioscience, #80305) at 5 μM FAC. The enzymatic reactions were conducted in duplicate at rt for 30 min in 50 μL DPP assay buffer (BPS Bioscience, #80300). Compound solutions (in DMSO) at 10 CR, 3 fold dilution series were prepared in assay buffer ten-fold higher than the final concentration, and 5 μL of the dilution was added to a 50 μL reaction so that the highest compound concentration was 100 μM FAC and the concentration of DMSO was 1% in all wells. The plates were read on a Tecan Infinite M1000 microplate reader with excitation 340 nm and emission 460 nm. Data were analyzed in Graph Pad Prism. IC50 values were determined by plotting % inhibition versus log compound concentration and using a one site dose response model. Raw data signals were normalized using 1% DMSO as 0% control and no enzyme as 100% inhibitor control.

[2] = molecular target: Fibroblast Activation Protein alpha (FAP) (Mus musculus (Mouse), UniProt P97321); test: in vivo
Sequence of Fibroblast Activation Protein alpha (FAP) (P97321 24-761): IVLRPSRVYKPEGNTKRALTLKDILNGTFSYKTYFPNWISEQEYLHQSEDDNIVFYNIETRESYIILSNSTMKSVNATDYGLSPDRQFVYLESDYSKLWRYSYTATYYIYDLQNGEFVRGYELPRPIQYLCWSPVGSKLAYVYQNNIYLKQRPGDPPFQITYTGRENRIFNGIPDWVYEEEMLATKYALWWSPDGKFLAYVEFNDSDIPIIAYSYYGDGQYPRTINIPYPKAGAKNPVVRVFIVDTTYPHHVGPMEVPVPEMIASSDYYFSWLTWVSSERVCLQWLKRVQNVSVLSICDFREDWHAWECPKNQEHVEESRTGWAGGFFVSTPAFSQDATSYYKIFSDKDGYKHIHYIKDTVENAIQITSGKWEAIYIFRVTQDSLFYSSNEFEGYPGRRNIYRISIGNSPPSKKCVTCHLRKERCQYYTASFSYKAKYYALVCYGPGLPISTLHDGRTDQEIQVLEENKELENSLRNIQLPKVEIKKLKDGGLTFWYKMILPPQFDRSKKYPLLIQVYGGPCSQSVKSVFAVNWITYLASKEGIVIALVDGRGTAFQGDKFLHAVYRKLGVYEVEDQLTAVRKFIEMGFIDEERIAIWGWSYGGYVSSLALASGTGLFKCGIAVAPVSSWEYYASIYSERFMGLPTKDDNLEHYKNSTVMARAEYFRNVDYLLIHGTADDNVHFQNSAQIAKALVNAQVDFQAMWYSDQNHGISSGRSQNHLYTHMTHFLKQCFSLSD
Method: The effect of test compound on FAP enzyme activity in mouse plasma was evaluated in an enzymatic assay using the Fibroblast Activation Protein alpha (FAP) specific fluorogenic substrate dipeptide-Coumarin, Ala-Pro-AMC, (ARI-3144).
Male C57Bl/6 mice (Charles River, Germany), 8 weeks of age, were single housed in a temperature-controlled room with a 12-hour light/dark cycle (06:00-18:00 light). The mice had ad libitum access to water and rodent chow diet (R70, Lactamin, Kimstad, Sweden), and were acclimated for 5 days upon arrival. After acclimation, all mice received a single oral dose of test compound (3 or 10 mg/kg). Blood samples for whole blood compound exposure measurements were taken at 0.25, 0.5, 1, 2, 4, 8 and 24 h post oral dosing. Samples were collected in EDTA capillary tubes (20 μL, K2E, REF 19.447) and were transferred to a 96-deep well plate (NUNC, Thermo Discher Scientific) and stored at −20° C. until further analyses were performed. Blood samples for plasma FAP enzyme activity measurements were taken at 0, 0.25, 0.5, 1, 2, 8 and 24 h post dosing. 25 μL of whole blood was collected in EDTA Microvette® CB 300 (K2E, REF 16.444.100) tubes, and were centrifuged at 4,000×g for 5 min. 10 μL of plasma was then transferred to PCR tubes and stored at −20° C. until further analysis was performed. All blood samples were taken by vena saphena puncture.
Recombinant human FAP (PB-17-1837, construct PL-17-0278, cd33-FAP (27-757)-6His, Mw85926 Da) was used as a standard for this assay. […] The plates were read on a Beckman Paradigm reader with excitation 360 nm and emission 465 nm. Fluorescence measurements were performed with kinetic read every 5 minutes for 60 min at room temperature. Data were analyzed in Excel (IDBS XLfit Add-In) using a Linear Regression (y=k*x+m) model to prepare a human recombinant FAP standard curve.
On the day of the assay, plasma was diluted (1:2) to 20 μL volume in buffer (PBS, 0.1% BSA) and 7.5 μL was transferred to the assay plate (384-well black, fluotrack PS, Greiner 781076). Ala-Pro-AMC (stock solution in 10 mM DMSO) was diluted in buffer (PBS, 0.1% BSA) to 150 μM concentration (180 μL stock solution to 12 mL buffer) and 7.5 μL added to the assay plate followed by a pipetting mix. The plates were read on a Beckman Paradigm reader with excitation 360 nm and emission 465 nm. Fluorescence measurements were performed with kinetic read every 5 minutes for 60 minutes at room temperature. As noted above, FAP cleaves Ala-Pro-AMC to release free AMC which is measured as a fluorescent signal.
The in vivo potency IC50 of each test compound was then estimated by relating the plasma exposure C of the compound to target engagement E in plasma using the following equation:
where E0 is the FAP baseline in plasma prior to dosing and Imax is the maximum effect of the compound. Data from each target engagement experiment were considered separately and therefore slightly different estimates of FAP baseline for each compound were obtained. […] The parameter estimation was done in Phoenix WinNonlin Certara build 8.1.0.3530 with the algorithm ‘Naïve pooled’ as parameter estimation method.

[3] = molecular target: FAP (Mus musculus (Mouse), UniProt P97321); test: FAP plasma inhibition assay, mouse plasma; type: biochemical; conditions: mouse plasma diluted 1:67, Ala-Pro-AMC 75 μM
Sequence of FAP (Mus musculus (Mouse), UniProt P97321) (P97321 24-761): as above
How it was run: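 K2EDTA plasma served as enzyme source, human diluted 1:40 and mouse 1:67, in PBS with 0.1% BSA. Compounds ran as a 10-point 3-fold series from 500 nM final, in duplicate, 40 min at rt in the dark, with fluorescence read against a pre-substrate blank. IC50 came from % inhibition versus log concentration.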

[4] = Caco-2 cell permeability; conditions: human
Method: Caco-2 cell permeability was measured as described in Mol Pharm 2017, 14, 1601.

[5] = Metabolic stability in rat hepatocytes (rHep); conditions: n = 1 or geometric mean of n = 2-3
[6] = Kinetic solubility; conditions: kinetic from dmso stock, Solubility, kinetic solubility; n = 1 or average of n = 2-3
Method: (§1) Kinetic solubility was measured as described in Comput Aided Mol Des 2015, 29, 795.

[7] = Metabolic stability in human liver microsomes (HLM); conditions: human, HLM CLint, n = 1 or average of n = 2-3
Method: (§2) Metabolic stability in HLM was measured as described in J Comput Aided Mol Des 2015, 29, 795.

[8] = molecular target: human dipeptidylpeptidase 9 (hDPP9) (Homo sapiens (Human), UniProt Q86TI2); test: hDPP9 inhibition assay; type: biochemical; conditions: hDPP9 0.4 nM, Ala-Pro-amino-methylcoumarin 5 μM, n = 1
Sequence of human dipeptidylpeptidase 9 (hDPP9) (Q86TI2 whole entry): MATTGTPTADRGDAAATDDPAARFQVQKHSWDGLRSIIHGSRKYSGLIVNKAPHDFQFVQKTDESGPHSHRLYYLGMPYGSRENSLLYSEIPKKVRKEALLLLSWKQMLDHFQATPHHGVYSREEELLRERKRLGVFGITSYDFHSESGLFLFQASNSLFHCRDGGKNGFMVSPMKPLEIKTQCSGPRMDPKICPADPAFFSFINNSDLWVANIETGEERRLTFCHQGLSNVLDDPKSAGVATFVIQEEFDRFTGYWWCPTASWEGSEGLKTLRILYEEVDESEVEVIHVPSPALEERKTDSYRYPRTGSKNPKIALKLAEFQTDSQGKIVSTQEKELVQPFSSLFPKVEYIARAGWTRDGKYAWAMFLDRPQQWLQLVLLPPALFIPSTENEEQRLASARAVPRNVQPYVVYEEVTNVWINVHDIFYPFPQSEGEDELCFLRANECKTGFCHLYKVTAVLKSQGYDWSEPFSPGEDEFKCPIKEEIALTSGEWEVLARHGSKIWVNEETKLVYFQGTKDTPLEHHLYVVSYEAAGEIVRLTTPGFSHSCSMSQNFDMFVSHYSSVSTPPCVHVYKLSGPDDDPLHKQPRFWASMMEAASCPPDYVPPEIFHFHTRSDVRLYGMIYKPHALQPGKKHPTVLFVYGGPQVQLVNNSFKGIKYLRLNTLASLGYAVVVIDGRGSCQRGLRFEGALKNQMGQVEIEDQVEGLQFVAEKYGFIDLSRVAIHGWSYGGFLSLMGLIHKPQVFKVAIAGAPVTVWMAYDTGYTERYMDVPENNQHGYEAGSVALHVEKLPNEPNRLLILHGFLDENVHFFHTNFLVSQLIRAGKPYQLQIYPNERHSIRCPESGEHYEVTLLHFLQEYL
Method: Compounds were tested in a biochemical inhibition assay using human dipeptidylpeptidase 9 (hDPP9) enzyme at 0.4 nM FAC (BPS Bioscience, #80090) and the substrate Ala-Pro-amino-methylcoumarin (BPS Bioscience #80305) at 5 μM FAC. The enzymatic reactions were conducted in duplicate at rt for 30 min in 50 μL DPP assay buffer (BPS Bioscience, #80300). […] The plates were read on a Tecan Infinite M1000 microplate reader with excitation 340 nm and emission 460 nm. Data were analyzed in Graph Pad Prism. IC50 values were determined by plotting % inhibition versus log compound concentration and using a one site dose response model. Raw data signals were normalized using 1% DMSO as 0% control and no enzyme as 100% inhibitor control.

[9] = Metabolic stability in human hepatocytes (hHep); type: in vitro ADME; conditions: n = 1 or geometric mean of n = 2
[10] = molecular target: hFAP (M39-A757) (Homo sapiens (Human), UniProt Q12884); test: hFAP binding assay (surface plasmon resonance); conditions: SPR, 20° C.; for hFAP Binding assay k(off) / hFAP Binding assay k(on): single cycle kinetics; for pKd: n = 1 or geometric mean n = 2-4
Sequence of hFAP (M39-A757) (Q12884 39-757): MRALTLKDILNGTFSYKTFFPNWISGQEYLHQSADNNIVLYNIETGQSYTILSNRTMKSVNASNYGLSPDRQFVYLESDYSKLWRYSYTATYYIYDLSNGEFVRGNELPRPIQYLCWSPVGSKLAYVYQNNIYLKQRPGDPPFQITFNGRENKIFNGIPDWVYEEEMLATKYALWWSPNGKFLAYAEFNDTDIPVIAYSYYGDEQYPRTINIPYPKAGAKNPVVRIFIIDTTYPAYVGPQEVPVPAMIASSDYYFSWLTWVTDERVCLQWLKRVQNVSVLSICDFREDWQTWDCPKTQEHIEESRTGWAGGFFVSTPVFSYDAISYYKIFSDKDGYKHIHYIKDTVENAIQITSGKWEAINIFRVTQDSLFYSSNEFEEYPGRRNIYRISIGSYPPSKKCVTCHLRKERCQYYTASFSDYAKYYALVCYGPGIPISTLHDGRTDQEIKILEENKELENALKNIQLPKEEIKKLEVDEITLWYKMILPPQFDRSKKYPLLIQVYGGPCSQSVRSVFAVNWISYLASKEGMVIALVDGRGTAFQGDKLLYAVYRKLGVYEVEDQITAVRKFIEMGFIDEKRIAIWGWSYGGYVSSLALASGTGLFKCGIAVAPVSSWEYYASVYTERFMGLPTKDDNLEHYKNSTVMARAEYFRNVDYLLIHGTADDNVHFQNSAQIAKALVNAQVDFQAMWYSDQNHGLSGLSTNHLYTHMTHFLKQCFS
Method: Compounds were tested in a direct binding assay using 8K surface plasmon resonance biosensor (GE Healthcare) at 20° C. Immobilization of hFAP (M39-A757) on a CMD200M sensor chip (Xantec) was performed using standard amine coupling procedure in immobilization buffer (10 mM HEPES, 150 mM NaCl, 0.05% Tween20, pH 7.4). The surface was washed with 10 mM NaOH, 1M NaCl before being activated with EDC/NHS (GE Healthcare), followed by immobilization of hFAP (in 10 mM Acetate pH 5.0). Finally, the surface was deactivated by ethanolamine. Immobilization levels of hFAP were around 4000-6000 RU. The reference spot was treated as described, omitting the injection of hFAP. Compound concentration series were injected over the immobilized protein in increasing concentrations (2-500 nM) using single cycle kinetics in running buffer (20 mM TRIS, 150 mM NaCl, 0.05% Tween20, 1% DMSO, pH 7.4). Interaction models were fitted globally to the experimental traces, enabling determination of kon, koff and Kd.

[11] = molecular target: Prolyl endopeptidase, Prolyl Oligopeptidase (hPREP) (Homo sapiens (Human), UniProt P48147); test: hPrep inhibition assay; type: biochemical; conditions: hPREP 0.6 nM, Z-Gly-Pro-amino-methylcoumarin 50 μM; read-out: PREP IC50
Sequence of Prolyl endopeptidase, Prolyl Oligopeptidase (hPREP) (P48147 whole entry): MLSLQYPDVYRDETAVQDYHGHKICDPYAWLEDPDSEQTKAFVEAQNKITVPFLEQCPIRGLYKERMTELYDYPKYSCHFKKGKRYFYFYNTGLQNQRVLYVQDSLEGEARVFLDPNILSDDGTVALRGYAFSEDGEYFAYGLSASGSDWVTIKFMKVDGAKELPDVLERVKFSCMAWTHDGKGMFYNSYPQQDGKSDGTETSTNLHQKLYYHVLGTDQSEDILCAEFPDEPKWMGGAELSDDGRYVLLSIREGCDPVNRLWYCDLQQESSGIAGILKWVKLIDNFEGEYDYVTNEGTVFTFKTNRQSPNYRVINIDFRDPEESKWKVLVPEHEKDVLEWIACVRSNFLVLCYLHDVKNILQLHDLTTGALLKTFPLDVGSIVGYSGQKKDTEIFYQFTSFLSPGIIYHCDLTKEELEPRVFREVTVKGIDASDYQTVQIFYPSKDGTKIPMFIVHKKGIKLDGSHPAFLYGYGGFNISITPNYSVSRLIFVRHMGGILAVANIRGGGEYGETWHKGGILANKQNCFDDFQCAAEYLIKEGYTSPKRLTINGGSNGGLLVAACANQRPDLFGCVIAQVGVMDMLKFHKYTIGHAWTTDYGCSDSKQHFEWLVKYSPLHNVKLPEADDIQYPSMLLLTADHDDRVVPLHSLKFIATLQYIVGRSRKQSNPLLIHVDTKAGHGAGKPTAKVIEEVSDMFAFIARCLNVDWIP
How it was run: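 Recombinant human PREP at 0.6 nM final with Z-Gly-Pro-AMC substrate at 50 μM final in Tris-HCl pH 7.5, NaCl, Triton X-100, glutathione; 15 min rt preincubation then 20 min rt reaction in dark. AMC fluorescence (ex 340/em 460 nm); IC50 from one-site dose-response fit of % inhibition.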

[12] = molecular target: T1, FAP (Homo sapiens (Human), UniProt Q12884); test: FAP plasma inhibition assay, human plasma; type: biochemical; conditions: human plasma diluted 1:40, Ala-Pro-AMC 75 μM
Method: This assay was adapted from the method described in Example 237 for detection of FAP target engagement enzyme activity in plasma. Plasma (anticoagulant K2EDTA) was used as the enzyme source: Human plasma (Pooled from AZ Biobank), Mouse plasma (AZ AST Biobank), and Cynomolgus plasma (BioIVT, #NHP00PLK2FNN, lot CYN222895). 384-Well black fluotrack PS plates (Greiner 781076) were used. 20 μL diluted plasma (Cynomolgus and Human plasma dilution 1:40, Mouse plasma dilution 1:67) in buffer (PBS, 0.1% BSA) was added to 0.6 μL compounds (in DMSO). Compounds were tested using 10 CR, 3 fold dilution series from 500 nM FAC. Two replicates for each assay point were run on the same plate. A fluorescence blank read was taken before substrate addition. […] Plates were incubated for 40 min at rt in the dark. […] IC50 values were determined by plotting % inhibition versus log compound concentration.
Target sequence in this assay (Q12884 24-760): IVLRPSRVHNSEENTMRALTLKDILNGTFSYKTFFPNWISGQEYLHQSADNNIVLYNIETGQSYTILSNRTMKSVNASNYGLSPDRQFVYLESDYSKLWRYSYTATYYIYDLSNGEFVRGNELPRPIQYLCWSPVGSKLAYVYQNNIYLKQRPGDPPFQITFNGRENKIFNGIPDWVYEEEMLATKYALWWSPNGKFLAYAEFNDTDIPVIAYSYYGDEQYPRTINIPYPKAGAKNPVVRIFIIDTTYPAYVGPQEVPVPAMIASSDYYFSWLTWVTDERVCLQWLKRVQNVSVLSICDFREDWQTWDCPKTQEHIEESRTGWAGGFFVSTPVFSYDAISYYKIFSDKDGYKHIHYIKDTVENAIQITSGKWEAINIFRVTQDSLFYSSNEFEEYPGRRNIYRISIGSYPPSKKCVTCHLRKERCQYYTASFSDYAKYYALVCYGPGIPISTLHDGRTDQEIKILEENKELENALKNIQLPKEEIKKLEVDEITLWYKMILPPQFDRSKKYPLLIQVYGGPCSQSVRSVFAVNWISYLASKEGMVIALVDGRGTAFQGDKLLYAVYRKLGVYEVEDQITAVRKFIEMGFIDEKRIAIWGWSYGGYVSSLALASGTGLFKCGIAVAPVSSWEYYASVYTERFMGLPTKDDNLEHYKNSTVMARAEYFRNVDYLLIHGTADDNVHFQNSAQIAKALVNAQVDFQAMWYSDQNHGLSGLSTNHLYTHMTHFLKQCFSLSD

[13] = molecular target: human Fibroblast activation protein alpha (hFAP) (Homo sapiens (Human), UniProt Q12884); test: hFAP inhibition assay (tight binders); type: biochemical; conditions: Ala-Pro-AMC 20 μM, n = 1 or geometric mean n = 2-6; note: hFAP 2.4 pM
Sequence of human Fibroblast activation protein alpha (hFAP) (Q12884 38-760): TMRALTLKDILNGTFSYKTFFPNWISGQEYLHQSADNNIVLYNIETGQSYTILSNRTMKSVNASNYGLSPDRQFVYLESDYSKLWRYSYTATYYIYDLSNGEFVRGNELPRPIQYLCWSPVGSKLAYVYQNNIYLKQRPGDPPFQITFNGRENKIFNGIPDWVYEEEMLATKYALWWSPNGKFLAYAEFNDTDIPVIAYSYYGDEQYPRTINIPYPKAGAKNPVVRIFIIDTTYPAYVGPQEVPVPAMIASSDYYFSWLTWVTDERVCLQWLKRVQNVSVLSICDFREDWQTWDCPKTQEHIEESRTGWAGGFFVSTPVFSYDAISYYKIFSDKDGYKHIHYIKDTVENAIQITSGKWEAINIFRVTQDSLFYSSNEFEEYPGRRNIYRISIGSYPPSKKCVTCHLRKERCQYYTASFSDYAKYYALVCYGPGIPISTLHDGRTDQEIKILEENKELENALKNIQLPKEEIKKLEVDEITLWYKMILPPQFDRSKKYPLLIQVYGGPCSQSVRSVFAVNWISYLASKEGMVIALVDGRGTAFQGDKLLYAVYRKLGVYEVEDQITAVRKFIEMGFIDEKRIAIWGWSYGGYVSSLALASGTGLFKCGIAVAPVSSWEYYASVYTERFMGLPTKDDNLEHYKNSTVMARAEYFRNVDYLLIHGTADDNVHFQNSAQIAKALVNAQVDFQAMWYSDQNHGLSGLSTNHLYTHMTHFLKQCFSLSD
Method: The plates were read on a PHERAstar® reader with excitation 340 nm and emission 460 nm. Data were analyzed in Genedata Screener®. IC50 values were determined by plotting % inhibition versus log compound concentration and using a one site dose response model.

[14] = molecular target: T1, FAP; test: hFAP inhibition assay; type: biochemical; conditions: hFAP […], Ala-Pro-AMC 20 μM; n = 1 or geometric mean n = 2-3
How it was run: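 Human FAP (0.48 nM) in 100 mM Tris HCl, 100 mM NaCl, 0.05% Chaps, pH 7.4 was preincubated 15 min at rt in the dark with compounds (10-point, 3-fold series from 50 μM). Substrate was added from a 40 μM solution, then 30 min at rt. Fluorescence read at ex 340/em 460 nm; IC50 from one-site dose-response fit of % inhibition.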
Target sequence in this assay (Q12884 38-760): as above

[15] = physchem; conditions: kinetic from dmso stock
Method: as §1

[16] = rat, hepatocytes
[17] = in vitro; conditions: human, microsomes, HLM CLint
Method: as §2

Compound: N#C[C@@H]1CSCN1C(=O)CNC(=O)c1ccnc2ccc(N3CC4(C3)OCCO4)cc12 [Example 163, (R)—N-(2-(4-Cyanothiazolidin-3-yl)-2-oxoethyl)-6-(5,8-dioxa-2-azaspiro[3.4]octan-2-yl)quinoline-4-carboxamide]
pIC50 [1]: < 4.00
pIC50 [2]: 8.52
pIC50 [3]: 9.70

Compound: C[C@@H]1CN(c2ccc3nccc(C(=O)NCC(=O)N4CSC[C@H]4C#N)c3c2)CCO1 [Example 72, N-(2-((R)-4-Cyanothiazolidin-3-yl)-2-oxoethyl)-6-((R)-2-methylmorpholino)-quinoline-4-carboxamide]
Papp A→B [4]: 1.3 ×10⁻⁶ cm/s
Papp B→A [4]: 24 ×10⁻⁶ cm/s
pIC50 [1]: < 4.00
rHep CLint [5]: 2.7 μL/min/1E6
solubility [6]: > 1000 µM
microsomal CLint [7]: 9.7 µL/min/mg
pIC50 [8]: 5.60
pIC50 [2]: 8.14
hHep CLint [9]: <1 μL/min/1E6
pIC50 [3]: 9.70

Compound: COC1(C)CN(c2ccc3nccc(C(=O)NCC(=O)N4CSC[C@H]4C#N)c3c2)C1 [Example 151, (R)—N-(2-(4-Cyanothiazolidin-3-yl)-2-oxoethyl)-6-(3-methoxy-3-methylazetidin-1-yl)quinoline-4-carboxamide]
pIC50 [1]: < 4.00
pIC50 [2]: 8.48
pIC50 [3]: 9.40

Compound: N#C[C@@H]1CSCN1C(=O)CNC(=O)c1ccnc2ccc(N3C4CCCC3COC4)cc12 [Example 86, 6-(3-Oxa-9-azabicyclo[3.3.1]nonan-9-yl)-N-(2-((R)-4-cyanothiazolidin-3-yl)-2-oxoethyl)quinoline-4-carboxamide]
solubility [15]: 640 µM (≈ 289 µg/mL)
rHep CLint [16]: 44 μL/min/1E6
pIC50 [13]: 10.13
hFAP Binding assay k(off) [10]: 0.000058 s⁻¹
hFAP Binding assay k(on) [10]: 730000 M⁻¹ s⁻¹
pKd [10]: 10.09
microsomal CLint [17]: 160 µL/min/mg
pIC50 [11]: 6.44

Compound: C[C@H]1CN(c2ccc3nccc(C(=O)NCC(=O)N4CSC[C@H]4C#N)c3c2)CCO1 [Example 80, N-(2-((R)-4-Cyanothiazolidin-3-yl)-2-oxoethyl)-6-((S)-2-methylmorpholino)-quinoline-4-carboxamide]
Papp A→B [4]: 0.81 ×10⁻⁶ cm/s
Papp B→A [4]: 25 ×10⁻⁶ cm/s
pIC50 [1]: < 4.00
rHep CLint [5]: 2 μL/min/1E6
solubility [6]: 980 µM (≈ 417 µg/mL)
microsomal CLint [7]: 7.5 µL/min/mg
pIC50 [8]: 5.85
pIC50 [2]: 8.05
hHep CLint [9]: <1 μL/min/1E6

Further compounds by rising pIC50 [2], results first:

pIC50 [1]: < 4.00
pIC50 [8]: 5.72
pIC50 [2]: 8.55
pIC50 [3]: 9.70
Compound: N#C[C@@H]1CSCN1C(=O)CNC(=O)c1ccnc2ccc(N3CCO[C@H](CF)C3)cc12 [Example 71, N-(2-((R)-4-Cyanothiazolidin-3-yl)-2-oxoethyl)-6-((S)-2-(fluoromethyl)morpholino)-quinoline-4-carboxamide]

pIC50 [1]: < 4.00
pIC50 [2]: 8.60
pIC50 [3]: 9.52
Compound: Cc1nn(C)cc1-c1ccc2nccc(C(=O)NCC(=O)N3CSC[C@H]3C#N)c2c1 [Example 171, (R)—N-(2-(4-Cyanothiazolidin-3-yl)-2-oxoethyl)-6-(1,3-dimethyl-1H-pyrazol-4-yl)quinoline-4-carboxamide]

pIC50 [1]: < 4.00
pIC50 [8]: 6.02
pIC50 [2]: 8.68
Compound: N#C[C@@H]1CSCN1C(=O)CNC(=O)c1ccnc2ccc(N3CCO[C@@H](CF)C3)cc12 [Example 69, N-(2-((R)-4-Cyanothiazolidin-3-yl)-2-oxoethyl)-6-((R)-2-(fluoromethyl)morpholino)-quinoline-4-carboxamide]

pIC50 [12]: 9.70
Papp [4]: 20 ×10⁻⁶ cm/s
Papp A→B [4]: 1.9 ×10⁻⁶ cm/s
Papp B→A [4]: 23 ×10⁻⁶ cm/s
efflux ratio [4]: 12
pIC50 [13]: 9.92
rHep CLint [5]: 11 μL/min/1E6
solubility [6]: 71 µM (≈ 29.4 µg/mL)
microsomal CLint [7]: < 3 µL/min/mg
hFAP Binding assay k(off) [10]: 0.000045 s⁻¹
hFAP Binding assay k(on) [10]: 1500000 M⁻¹ s⁻¹
pKd [10]: 10.51
pIC50 [2]: 8.70
hHep CLint [9]: <1.5 μL/min/1E6
pIC50 [3]: 9.30
pIC50 [11]: 6.31
pIC50 [14]: 9.60
Compound: N#C[C@@H]1CSCN1C(=O)CNC(=O)c1ccnc2ccc(N3CC(CF)C3)cc12 [Example 113, (R)—N-(2-(4-Cyanothiazolidin-3-yl)-2-oxoethyl)-6-(3-(fluoromethyl)azetidin-1-yl)quinoline-4-carboxamide]

pIC50 [1]: < 4.00
pIC50 [2]: 8.85
pIC50 [3]: 9.30
Compound: CC1(CF)CN(c2ccc3nccc(C(=O)NCC(=O)N4CSC[C@H]4C#N)c3c2)C1 [Example 27, (R)—N-(2-(4-Cyanothiazolidin-3-yl)-2-oxoethyl)-6-(3-(fluoromethyl)-3-methylazetidin-1-yl)quinoline-4-carboxamide]

hFAP Binding assay k(off) [10]: 0.000046 s⁻¹
hFAP Binding assay k(on) [10]: 2100000 M⁻¹ s⁻¹
pIC50 [2]: 8.92
pIC50 [3]: 9.52
pIC50 [11]: 6.19
Compound: N#C[C@@H]1CSCN1C(=O)CNC(=O)c1ccnc2ccc(N3CCC(F)CC3)cc12 [Example 205, (R)—N-(2-(4-Cyanothiazolidin-3-yl)-2-oxoethyl)-6-(4-fluoropiperidin-1-yl)quinoline-4-carboxamide]

pIC50 [1]: 4.48
pIC50 [2]: 9.74
pIC50 [3]: 9.28
Compound: N#C[C@@H]1CSCN1C(=O)CNC(=O)c1ccnc2ccc(N3CCOCC3)cc12 [Example 67, (R)—N-(2-(4-Cyanothiazolidin-3-yl)-2-oxoethyl)-6-morpholinoquinoline-4-carboxamide]
